The record followed here is patent US20240058312A1, “METHODS AND MATERIALS FOR TREATING BONE LOSS” (The Penn State Research Foundation, priority 2021, published 2024).

The subject of test [1] is C57BL/6J mice with sciatic nerve, biceps femoris and quadriceps femoris muscle crush injury. Description: micro-CT of tibial bone microarchitecture after sciatic nerve and muscle crush injury. The format is in vivo. Conditions: tibial metaphysis, 40 μg/mouse/day IP for 21 days, vs. saline. The protocol: (§1) Ten-week-old male C57BL/6J mice (Jackson Laboratories, Bar Harbor, Maine) weighing 25±3 g were used. Sciatic nerve crush injury was performed with muscle crush injury as described elsewhere (Govindappa et al., Int. Immunopharmacol., 82:106330 (2020)). Briefly, after intraperitoneal (IP) ketamine (100 mg/kg)/xylazine (10 mg/kg) anesthesia, the right hindlimb was shaved and prepared with alcohol swabs and povidone-iodine (Betadine). Using a stereo zoom binocular microscope, a lateral skin incision (˜3 cm) was made along the length of the femur and the sciatic nerve (SN) was bluntly exposed through the iliotibial band. Nerve crush injury was performed ˜3 mm proximal to the SN trifurcation and muscle crush injury was performed at the center of Biceps femoris (BF) and Quadriceps femoris (QF) muscle using calibrated forceps (5 mm tip width; 18-1107, Miltex Instruments) for 30 seconds (nerve) and 60 seconds (muscles), respectively. Uninjured contralateral normal limbs were kept without injury as controls. The skin was closed using surgical staples and post-operative slow-release buprenorphine (0.05 mg/kg) was given subcutaneously to all animals as an analgesic.
The experimental animals (6 animals/group) were randomized to normal saline (0.1 mL/mouse) and 4-AP (40 μg/mouse) treatment groups. 4-AP was given by IP injection immediately after surgery and daily for 21 days. Animals were euthanized using isoflurane on post-injury day 22 to harvest hindlimbs. Harvested hindlimbs were subjected to dual-energy X-ray absorptiometry (DEXA) and microcomputed tomography (micro-CT) scanning to analyze the bone quality.
The data were analyzed using one-way and two-way analysis of variance (ANOVA) using GraphPad Prism Version 8.2.0. All values are presented as mean±SEM. Probability (P) values of <0.05 were considered statistically significant.

Test [2] has the same test system. The test can be described thus: DEXA scanning of tibial bone after sciatic nerve and muscle crush injury. The format is in vivo. Conditions: 40 μg/mouse/day IP for 21 days. The protocol:
as §1, with “analgesic. […]” for “analgesic.”
The data were analyzed using one-way and two-way analysis of variance (ANOVA) using GraphPad Prism Version 8.2.0. […]

Each structure is given as a SMILES string.

Take `Nc1ccncc1` [4-AP, 4-aminopyridine]: in test [1], the bone volume fraction entry is “upregulating”, the “structural model index (SMI)” value is “downregulated”, the trabecular separation entry is on record as “downregulated” and the trabecular thickness entry was “upregulating”. In addition, the tibial bone volume result in test [2] (combined nerve and muscle crush injury, P<0.05 vs. saline, FIG. 1A) is “significantly improves”. Moreover, the “BMD (bone mineral density) of tibial bone” value in test [2] (nerve and muscle injury associated tibial bone, mean, P<0.05 vs. saline (76.57)) was 79.75 mg/cm^2.
